Reference: PMC7932537, “Quantitative profiling of protease specificity” (PLoS Computational Biology, 2021)

Experiments:
MMP-9 = MMP-9 (Homo sapiens, UniProt P14780); experiment: K(obs) of individual phage substrates (set of 1369); format: biochemical; conditions: MMP9, individual phage substrates, set of 1369 peptides
MMP-2 = target: T1, MMP-2 (Homo sapiens, UniProt P08253); experiment: as above; format: biochemical; conditions: MMP2
T1 sequence (P08253 110-660): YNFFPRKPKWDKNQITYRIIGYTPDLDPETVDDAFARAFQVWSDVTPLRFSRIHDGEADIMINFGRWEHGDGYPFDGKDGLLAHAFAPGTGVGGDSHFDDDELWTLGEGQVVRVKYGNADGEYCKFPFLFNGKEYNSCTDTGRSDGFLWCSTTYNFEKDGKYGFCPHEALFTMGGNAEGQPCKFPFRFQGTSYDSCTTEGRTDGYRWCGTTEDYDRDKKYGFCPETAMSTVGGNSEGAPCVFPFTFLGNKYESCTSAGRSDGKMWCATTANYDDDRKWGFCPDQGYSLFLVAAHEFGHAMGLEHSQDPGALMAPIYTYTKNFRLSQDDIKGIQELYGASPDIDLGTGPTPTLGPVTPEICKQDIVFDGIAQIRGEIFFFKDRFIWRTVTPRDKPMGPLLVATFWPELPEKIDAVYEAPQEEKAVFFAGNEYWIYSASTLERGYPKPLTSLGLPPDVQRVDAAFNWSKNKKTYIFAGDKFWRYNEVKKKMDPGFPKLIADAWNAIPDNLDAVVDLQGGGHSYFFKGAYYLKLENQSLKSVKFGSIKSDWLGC

[1] = dash in sequence marks cleavage position
[2] = individual phage substrate from the set of 1369 peptides, cleavage position marked by the dash in the sequence
[3] = '-' marks the cleavage position (P1-P1')
[4] = individual phage substrates, set of 1369 peptides, cleavage position marked by '-' in the sequence

Sequence of MMP-9 (P14780 94-707): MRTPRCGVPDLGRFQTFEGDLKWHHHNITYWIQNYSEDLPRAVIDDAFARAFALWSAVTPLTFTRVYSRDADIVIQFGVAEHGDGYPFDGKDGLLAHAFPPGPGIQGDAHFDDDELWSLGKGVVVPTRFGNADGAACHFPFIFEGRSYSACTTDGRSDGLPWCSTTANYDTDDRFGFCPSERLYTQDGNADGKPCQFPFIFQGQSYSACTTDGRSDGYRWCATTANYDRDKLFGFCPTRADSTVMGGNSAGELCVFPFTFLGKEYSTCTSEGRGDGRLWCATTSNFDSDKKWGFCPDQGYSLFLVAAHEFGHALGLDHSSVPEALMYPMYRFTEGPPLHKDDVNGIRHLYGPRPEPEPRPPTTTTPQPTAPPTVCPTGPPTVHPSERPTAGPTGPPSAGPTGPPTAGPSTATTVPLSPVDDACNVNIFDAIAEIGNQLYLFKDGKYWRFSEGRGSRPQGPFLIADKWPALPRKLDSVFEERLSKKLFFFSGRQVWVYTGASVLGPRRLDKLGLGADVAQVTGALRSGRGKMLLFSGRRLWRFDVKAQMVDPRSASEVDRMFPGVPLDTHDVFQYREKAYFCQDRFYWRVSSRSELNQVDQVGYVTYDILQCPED

Row | Kobs (MMP-9; [1]) [M⁻¹ s⁻¹] | Kobs (MMP-2; [2]) [M⁻¹ s⁻¹] | Kobs (MMP-9; [3]) [M⁻¹ s⁻¹] | Kobs (MMP-2; [4]) [M⁻¹ s⁻¹] | Substance
1 | 0 | 2687.73 | – | – | GGHQW-LRTAS
2 | – | – | 8941.32 | 12792.1 | SGTWP-LSGTA
3 | 0 | 1373.05 | – | – | SGVGM-LYNTA
4 | – | – | 3964.21 | 2916.17 | KAALP-LTASG
5 | 0 | 113.394 | – | – | SGVNR-ISLTA
6 | 8941.32 | 12792.1 | – | – | GSPLD-LKTAS
7 | – | – | 2916.17 | 3344.37 | AIYRS-MTASG
8 | – | – | 517.582 | 3964.21 | GGSGP-LMLPF
9 | 7815.03 | 12792.1 | – | – | SGGRN-LTATA
10 | – | – | 12792.1 | 1196.62 | ISPML-LTASG
11 | – | – | 951.362 | 551.253 | EVTMW-LTASG
12 | – | – | 231.616 | 201.585 | GSGQG-LKVRT
13 | – | – | 3079.62 | 3079.62 | SKVLF-LTASG
14 | – | – | 10866.7 | 10866.7 | HGPMS-LTASG
15 | – | – | 355.093 | 551.253 | WSVQL-LTASG
16 | 261.974 | 323.705 | – | – | FRVEP-LTASG
17 | 1239.69 | 10866.7 | – | – | SPAHG-LTASG
18 | 2476.66 | 7815.03 | – | – | VKAQH-LTASG
19 | – | – | 0 | 8321.48 | GGSGR-LLQFL
20 | – | – | 6688.74 | 3964.21 | RDVLW-LTASG
21 | – | – | 726.013 | 8941.32 | MAYQS-LTASG
22 | 0 | 0 | – | – | GSGHR-LMMGT
23 | – | – | 12792.1 | 12792.1 | LVVAA-LTASG
24 | 726.013 | 1154.21 | – | – | RHMLG-LTASG

Row | Kobs (MMP-9; [1]) [M⁻¹ s⁻¹] | Kobs (MMP-2; [2]) [M⁻¹ s⁻¹] | Kobs (MMP-9; [3]) [M⁻¹ s⁻¹] | Kobs (MMP-2; [4]) [M⁻¹ s⁻¹] | Substance
25 | – | – | 0 | 12792.1 | WHFGA-LTASG
26 | – | – | 0 | 0 | SGNLA-LKQTA
27 | – | – | 0 | 27.918 | SGVNL-LLMTA
28 | – | – | 5461.43 | 836.403 | PVVWW-QTASG
29 | 12792.1 | 12792.1 | – | – | MVVRH-LTASG
30 | 1981.53 | 3165.09 | – | – | GRAWG-LITAS
31 | – | – | 0 | 0 | GGSGR-LVLRV
32 | – | – | 2280.5 | 3850.82 | GRVLH-LRTAS
33 | – | – | 551.253 | 3438.54 | VDILH-LTASG
34 | – | – | 5090.5 | 7015.91 | YRVAF-LTASG
35 | 0 | 1816.46 | – | – | GGSGP-LRARL
36 | – | – | 4335.13 | 8321.48 | TSVLA-LTASG
37 | – | – | 27.918 | 1327.88 | SGANS-LVATA
38 | – | – | 4470.66 | 6688.74 | TMAHP-LTASG
39 | – | – | 56.119 | 2038.8 | IVNAR-LTASG
40 | – | – | 0 | 0 | SGINM-LTLTA
41 | – | – | 84.609 | 451.441 | GGASG-LMTAS
42 | – | – | 0 | 874.197 | SGLAS-LRLTA
43 | – | – | 0 | 0 | GRVHR-LSTAS
44 | 0 | 0 | – | – | SGALD-LKRTA
45 | 0 | 0 | – | – | GGSGS-LTFNT
46 | 0 | 0 | – | – | SGLAR-LSMTA
47 | 1373.05 | 7015.91 | – | – | YYASH-LTASG
